Assay results published in paper PMC11011439, “Influence of Molecular Design on the Tumor Targeting and Biodistribution of PSMA-Binding Tracers Labeled with Technetium-99m” (International Journal of Molecular Sciences, 2024).
Marks after values point to notes of the source that are not given here.

Legend:
[1] = Octanol/water distribution coefficient (LogD); assay type: physicochemical; conditions: n-octanol / Milli-Q water
Method: The LogD was determined experimentally based on the procedure described earlier. Briefly, the radiolabeled compound of interest was added to a LoBind Eppendorf tube (Eppendorf, Hamburg, Germany) containing Milli-Q water (500 μL) and n-octanol (500 μL), and the mixture was vortexed and centrifuged. Thereafter, three fractions from each phase were collected and the activity was measured using a gamma counter. The LogD was calculated by dividing the average activity measured in octanol by the average activity measured in water.

PC3-pip cells = assay: Cellular processing (internalization) during continuous incubation; assay type: cell-based; conditions: 2 nM, 37 °C
Method: To evaluate the cellular processing of [^99mTc]Tc-labeled BQ0411 and BQ0412, PC3-pip cells were incubated with the radiolabeled tracer (2 nM), and at predetermined time points (1, 2, 4, and 8 h), cells were treated with 0.5 mL of 4 M urea solution in a 0.2 M glycine buffer, pH 2.5, for 5 min on ice. After that, the acidic supernatant was collected, and this fraction was considered to be the membrane-bound activity. To lyse the cells, 0.5 mL of 1 M sodium hydroxide solution was added and incubated at 37 °C for at least 20 min. The alkaline-containing solution was collected, and the basic fraction was considered to be the internalized activity.

PSMA [2] = target: T1, PSMA (Homo sapiens, UniProt Q04609); assay: In vitro binding specificity (saturation with non-labeled PSMA-11) on PC3-pip cells; conditions: 2 nM tracer, 250-fold molar excess of PSMA-11, 1 h, 37 °C
T1 construct: expressed in transfected cells; host or cells: PC3-pip cells (from Prof. Martin G. Pomper, Johns Hopkins University)
T1 sequence (Q04609 whole entry): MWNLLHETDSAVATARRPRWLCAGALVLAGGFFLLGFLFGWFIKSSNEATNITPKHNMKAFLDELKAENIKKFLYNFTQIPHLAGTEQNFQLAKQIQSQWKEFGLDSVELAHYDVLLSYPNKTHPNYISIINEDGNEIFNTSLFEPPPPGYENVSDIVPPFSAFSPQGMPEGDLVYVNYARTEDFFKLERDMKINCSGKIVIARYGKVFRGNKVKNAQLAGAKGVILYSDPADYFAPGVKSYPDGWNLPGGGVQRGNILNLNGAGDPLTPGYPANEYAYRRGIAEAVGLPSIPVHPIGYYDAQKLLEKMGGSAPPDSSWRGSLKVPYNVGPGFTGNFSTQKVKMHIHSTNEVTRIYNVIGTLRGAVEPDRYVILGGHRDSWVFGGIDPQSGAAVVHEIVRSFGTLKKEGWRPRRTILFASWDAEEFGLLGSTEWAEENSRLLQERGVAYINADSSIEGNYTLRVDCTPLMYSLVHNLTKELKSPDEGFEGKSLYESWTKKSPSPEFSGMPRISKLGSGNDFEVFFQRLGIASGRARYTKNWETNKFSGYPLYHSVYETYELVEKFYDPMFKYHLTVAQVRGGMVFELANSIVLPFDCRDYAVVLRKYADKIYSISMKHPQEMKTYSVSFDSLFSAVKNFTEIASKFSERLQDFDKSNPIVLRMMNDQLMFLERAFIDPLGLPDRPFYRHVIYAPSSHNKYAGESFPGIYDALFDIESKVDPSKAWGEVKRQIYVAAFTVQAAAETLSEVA
Method: For the in vitro binding specificity test, approximately 8 × 10^5 of PC3-pip cells per well were seeded in 6-well plates 24 h before the experiment. Cells in three control wells were pre-saturated with a 250-fold excess of non-labeled PSMA-11 15 min before the addition of radiotracers, while the second set was treated with complete media. After 15 min of incubation at room temperature, [^99mTc]Tc-labeled radioligands were added to all wells to reach a concentration of 2 nM. After one hour of incubation at 37 °C, the cells were washed with PBS solution, detached, and collected. Cell-associated activity was measured using a gamma counter and presented as the percentage of added activity.

[3] = Stability of the [99mTc]Tc-maG3 complex in PBS and under cysteine challenge (radio-HPLC); assay type: physicochemical; conditions: room temperature, 1 h
Method: The iTLC data were cross-validated using radio-HPLC analysis, performed using a Hitachi Chromaster HPLC system with a radioactivity detector and Phenomenex Luna® C18 column (100 Å; 150 × 4.6 mm; 5 µm) at room temperature (20 °C), in the following conditions: solvent A: 0.1% trifluoroacetic acid (TFA) in H2O, solvent B: 0.1% TFA in acetonitrile, flow rate: 1 mL/min. For identity and purity analysis of [^99mTc]Tc-BQ0411 and [^99mTc]Tc-BQ0412, the method with a gradient from 5 to 60% solvent B over 20 min was used.
To evaluate the chemical stability of the [^99mTc]Tc-maG3 complex, fractions of radiolabeled conjugates (10 µL, 0.25 µg) were incubated with a 300× molar excess of cysteine or with PBS at room temperature for 1 h. The test was run in triplicate.

[4] = tested on: PSMA-expressing prostate cancer xenografts (PC3-pip); assay: Biodistribution and tumor targeting in PC3-pip tumor-bearing mice; assay type: in vivo, BALB/c nu/nu mice; conditions: 3 h pi
Method: PSMA-expressing prostate cancer xenografts were implanted in BALB/c nu/nu mice by subcutaneous injection of PC3-pip cell suspension in PBS (10^7 cells/animal in 100 µL). The average tumor weight was 0.3 ± 0.2 g at the time of the experiment. Four mice per data point were used. Mice were intravenously injected with 5 nmol of the radiotracer (60 kBq, the mass of the injected compound was adjusted with an unlabeled tracer). The mice were euthanized 3 h pi, and the samples were treated as described above.

[5] = Biodistribution in NMRI mice; assay type: in vivo; conditions: for activity in carcass / activity in intestines with content / uptake in blood / uptake in kidney / uptake in liver / uptake in lung / uptake in salivary glands / uptake in spleen / uptake in stomach: 40 pmol/mouse iv
Method: Four NMRI mice were intravenously injected with 40 pmol of the radiotracer (60 kBq, the mass of the injected compound was adjusted with an unlabeled tracer). The mice were euthanized with a lethal intraperitoneal injection of ketamine/xylazine, followed by exsanguination at 3 and 24 h post-injection (pi). The organs of interest were collected, weighed, and measured for their activity content using a gamma counter. The uptake activity in organs was calculated as the percentage of injected activity per gram (%IA/g) for the blood, salivary glands, lungs, liver, spleen, stomach, and kidneys and as %IA for the remaining carcass and the rest of the intestines with content.

PSMA [6] = target: T1, PSMA; assay: Real-time binding kinetics on living PC3-pip cells (LigandTracer Yellow); conditions: 5 nM tracer, 1:2 interaction model
Method: The binding kinetics of [^99mTc]Tc-labeled BQ0411, BQ0412, and BQ0413 were measured in real time using LigandTracer Yellow Instruments (Ridgeview Instruments AB, Uppsala, Sweden) on PC3-pip cells, as described earlier. The activity binding was recorded at 5 nM on the radiolabeled tracers for 150 min. After measuring the binding kinetics, the medium containing the labeled tracer was replaced with fresh medium, and the dissociation was monitored over 7 h. […]

For `CC(=O)NC(CCCCNC(=O)CNC(=O)C[N]1C(=O)C[N]2C(=O)C[N]3C(=O)C[S][99Tc-]132=[O])C(=O)NCCCCCCCC(=O)NC(Cc1ccc(O)cc1)C(=O)NC(Cc1ccc2ccccc2c1)C(=O)NCCCCC(NC(=O)NC(CCC(=O)O)C(=O)O)C(=O)O` (stereo not drawn) [[^99mTc]Tc-BQ0411], the “logD (octanol–water distribution coefficient)” value [1] was −2.3 ± 0.1, the “internalized activity (of cell-associated activity)” value (PC3-pip cells; 4 h of continuous incubation) was 44 ± 1% and the “internalized activity (of cell-associated activity)” value (PC3-pip cells; after 4 h (8 h of continuous incubation)) was 44.2 ± 0.7%. The “binding to PC3-pip cells after pre-treatment with excess non-labeled PSMA-11” value (PSMA [2]) was “significantly (p ˂ 0.0001) decreased”, the “stability in the presence of cysteine” value ([3]; 300-fold molar excess of cysteine) was “stable” and the “stability during incubation in PBS” value ([3]; PBS) was “stable”. The activity in carcass ([4]; 5 nmol/mouse iv) was 3.5 ± 0.9 %IA/sample, the “activity in intestines with content” value ([4]; 5 nmol/mouse iv) was 44 ± 5 ^a,b %IA/sample and the uptake in blood ([4]; 5 nmol/mouse iv) was 1.0 ± 0.4 ^b %IA/g. The uptake in bone ([4]; 5 nmol/mouse iv) was 0.20 ± 0.06 %IA/g, the uptake in kidney ([4]; 5 nmol/mouse iv) was 13 ± 6 %IA/g and the uptake in liver ([4]; 5 nmol/mouse iv) was 1.9 ± 0.7 ^a,b %IA/g. For the same compound, the uptake in lung ([4]; 5 nmol/mouse iv) was 0.9 ± 0.3 ^a,b %IA/g, the uptake in muscle ([4]; 5 nmol/mouse iv) was 0.17 ± 0.05 %IA/g and the uptake in pancreas ([4]; 5 nmol/mouse iv) was 0.2 ± 0.1 %IA/g. The “uptake in salivary glands” value ([4]; 5 nmol/mouse iv) was 0.4 ± 0.1 %IA/g, the “uptake in small intestine” value ([4]; 5 nmol/mouse iv) was 0.9 ± 0.4 %IA/g and the uptake in spleen ([4]; 5 nmol/mouse iv) was 1.0 ± 0.2 %IA/g. For the same compound, the uptake in stomach ([4]; 5 nmol/mouse iv) was 0.4 ± 0.2 %IA/g, the uptake in tumor ([4]; 5 nmol/mouse iv) was 27 ± 4 ^a,b %IA/g and the tumor-to-blood ratio ([4]; 5 nmol/mouse) was 32 ± 11 ^b. For the same compound, the tumor-to-bone ratio ([4]; 5 nmol/mouse) was 146 ± 57, the tumor-to-kidney ratio ([4]; 5 nmol/mouse) was 2.3 ± 0.8 ^a and the tumor-to-liver ratio ([4]; 5 nmol/mouse) was 16 ± 7 ^a,b. For the same compound, the tumor-to-lung ratio ([4]; 5 nmol/mouse) was 33 ± 9 ^b, the tumor-to-muscle ratio ([4]; 5 nmol/mouse) was 173 ± 47 ^b and the tumor-to-pancreas ratio ([4]; 5 nmol/mouse) was 121 ± 46. For the same compound, the tumor-to-salivary ratio ([4]; 5 nmol/mouse) was 69 ± 16 ^b, the tumor-to-small intestine ratio ([4]; 5 nmol/mouse) was 35 ± 18 ^b and the tumor-to-spleen ratio ([4]; 5 nmol/mouse) was 24 ± 7. The tumor-to-stomach ratio ([4]; 5 nmol/mouse) was 86 ± 43 ^b, the “activity uptake in the gastrointestinal tract (with content)” value [4] was “over 40 %IA” and the “tumor uptake, fold higher compared with [99mTc]Tc-BQ0412 and [99mTc]Tc-BQ0413” value [4] was 1.6 fold. The activity in carcass ([5]; 3 h pi) was 6.4 ± 0.8 *^,a,b %IA/sample, the “activity in intestines with content” value ([5]; 3 h pi) was 43 ± 6 *^,a,b %IA/sample and the uptake in blood ([5]; 3 h pi) was 1.4 ± 0.7 *^,a %IA/g. For the same compound, the uptake in kidney ([5]; 3 h pi) was 129 ± 22 *^,a,b %IA/g, the uptake in liver ([5]; 3 h pi) was 0.8 ± 0.1 *^,a %IA/g and the uptake in lung ([5]; 3 h pi) was 0.8 ± 0.1 *^,a %IA/g. For the same compound, the “uptake in salivary glands” value ([5]; 3 h pi) was 0.5 ± 0.1 *^,a,b %IA/g, the uptake in spleen ([5]; 3 h pi) was 0.38 ± 0.07 *^,b %IA/g and the uptake in stomach ([5]; 3 h pi) was 0.42 ± 0.07 *^,b %IA/g. The activity in carcass ([5]; 24 h pi) was 0.21 ± 0.01 ^b %IA/sample, the “activity in intestines with content” value ([5]; 24 h pi) was 0.3 ± 0.2 %IA/sample and the uptake in blood ([5]; 24 h pi) was 0.027 ± 0.002 ^b %IA/g. For the same compound, the uptake in kidney ([5]; 24 h pi) was 3.9 ± 0.6 ^b %IA/g, the uptake in liver ([5]; 24 h pi) was 0.032 ± 0.004 ^b %IA/g and the uptake in lung ([5]; 24 h pi) was 0.019 ± 0.005 ^b %IA/g. For the same compound, the “uptake in salivary glands” value ([5]; 24 h pi) was 0.022 ± 0.005 ^b %IA/g, the uptake in spleen ([5]; 24 h pi) was 0.015 ± 0.002 %IA/g and the uptake in stomach ([5]; 24 h pi) was 0.06 ± 0.02 ^b %IA/g. The “activity remaining in the body” value ([5]; 3 h pi, excluding activity in the intestines with content) was 40–50 % from injected, the “washout of activity from kidneys” value ([5]; 24 h pi compared to 3 h pi) was 97% and the ka1 (PSMA [6]) was 24000 M⁻¹ s⁻¹. For the same compound, the ka2 (PSMA [6]) was 67000 M⁻¹ s⁻¹, the kd1 (PSMA [6]) was 1.4e-05 s⁻¹ and the kd2 (PSMA [6]) was 2e-05 s⁻¹.
